Data set [1] in a line: Solubility in water (stirred in water, filtrate analysed by HPLC). As for the experimental part:
After stirring, the supernatant was filtered by a membrane filter (0.45µm) and a filtate was analyzed by HPLC.

Data set [2] in a line: Stability in aqueous solution. It counts as physicochemical. Conditions: decomposed to paclitaxel. An excerpt: As clearly shown in the Table compared with paclitaxel, the solubility of paclitaxel derivatives show strikingly high values.
In data set [3] the test system is tubulin (a main constituting protein of the microtubule). In words: Tubulin polymerization-promoting / depolymerization-inhibiting activity (absorbance at 350 nm). It counts as biochemical. Conditions: for Depolymerization-inhibiting activity / Polymerization-promoting activity: relative activity, paclitaxel taken as 100, 5µM; for Depolymerization-inhibiting activity: absorbance at 350 nm 5 minutes after addition of calcium chloride; for Polymerization-promoting activity: tubulin, 37°C, 15 minutes, absorbance at 350 nm. As for the experimental part: Next, each of the above-described samples is mixed with tubulin (a main constituting protein of the microtubule) and allowed to react at 37°C for 15 minutes. Absorbance at 350 nm of the reaction solution was measured at 2, 5, 10 and 15 minutes after initiation of the reaction. Also, after the reaction ended, calcium chloride was added and. 5 minutes after its addition, absorbance at 350 nm was again measured. From each measured value the relative activity of each sample was determined such that polymerization-promoting activity and depolymerization - inhibiting activity were taken as 100, and the results are shown in Table 2.

The conditions of data set [4]: I.Ringer et al., J. Natl. Cancer Inst., 83, 288 (1991); cited from earlier work.
The mark [5] stands for this setting: in water, 10 mg in 5 ml water, stirred for 18 hours, filtered 0.45µm, HPLC.

Here are results for five molecules from patent publication EP0882732B1, “Taxoid derivative and method of producing thereof” (Ensuiko Sugar Refining Company, Limited, priority 1997, dated 1998).

Values after ≈ are worked out from the molar mass of the structure shown.

Usually Solubility stands for how much of the substance goes into solution per volume. Read a low Solubility as a poorly soluble substance. Consider `CC(=O)O[C@H]1C(=O)[C@@]2(C)[C@H]([C@H](OC(=O)c3ccccc3)[C@]3(O)C[C@H](OC(=O)[C@H](OC(=O)COC4O[C@H](CO)[C@@H](O)[C@H](O)[C@H]4O)[C@@H](NC(=O)c4ccccc4)c4ccccc4)C(C)=C1C3(C)C)[C@]1(OC(C)=O)CO[C@@H]1C[C@@H]2O` (some centres unmarked) [2'-S-paclitaxel, Glucosyloxyacetyl-2'-paclitaxel], for which the “solubility in water relative to paclitaxel” value in data set [1] was 76.5 times. The Solubility in data set [1] (setting [5]) came out at 30.6 µg/mL (≈ 28.5 µM). For the same molecule, the “stability in aqueous solutions” value in data set [2] is “unstable in aqueous solutions”. Also, in data set [3], the Depolymerization-inhibiting activity was determined as 100 and the Polymerization-promoting activity worked out at 52.7.
As a reminder, the solubility is the concentration that dissolves in the medium under given conditions. A high value points to a readily soluble substance. In data set [1] (18 h), `CC(=O)O[C@H]1C(=O)[C@@]2(C)[C@H]([C@H](OC(=O)c3ccccc3)[C@]3(O)C[C@H](OC(=O)[C@H](O)[C@@H](NC(=O)c4ccccc4)c4ccccc4)C(C)=C1C3(C)C)[C@]1(OC(C)=O)CO[C@@H]1C[C@@H]2O` [Paclitaxel, reference compound] came in with a Solubility of 0.4 µg/mL (≈ 0.468 µM). In addition, the solubility at 18 h in data set [1] (water, thermodynamic from solid) was determined as 0.4 µg/mL (≈ 0.468 µM). Further, in data set [3], the Depolymerization-inhibiting activity came to 100 and the Polymerization-promoting activity is reported as 100.
Consider `CC(=O)O[C@H]1C(=O)[C@]2(C)[C@@H](OC(=O)COC3O[C@H](CO)[C@@H](O)[C@H](O)[C@H]3O)C[C@H]3OC[C@@]3(OC(C)=O)[C@H]2[C@H](OC(=O)c2ccccc2)[C@]2(O)C[C@H](OC(=O)[C@H](O)[C@@H](NC(=O)c3ccccc3)c3ccccc3)C(C)=C1C2(C)C` (some centres unmarked) [7-S-paclitaxel, Glucosyloxyacetyl-7-paclitaxel], for which the “solubility in water relative to paclitaxel” value in data set [1] stood at 36.8 times. In addition, in data set [1] (setting [5]), the Solubility came to 14.7 µg/mL (≈ 13.7 µM). In data set [3], the Depolymerization-inhibiting activity was found to be 225 and the Polymerization-promoting activity stood at 91.9. In data set [3] (statement in words, comparison with paclitaxel), the “depolymerization-inhibiting activity compared with paclitaxel” value was “more than twice as potent as that of paclitaxel”.
As for `CC(=O)O[C@@]12CO[C@@H]1C[C@H](O)[C@@]1(C)C(=O)[C@H](O)C3=C(C)[C@@H](OC(=O)[C@H](O)[C@@H](NC(=O)OC(C)(C)C)c4ccccc4)C[C@@](O)([C@@H](OC(=O)c4ccccc4)[C@H]21)C3(C)C` [docetaxel], the “solubility of docetaxel in water relative to paclitaxel” value in data set [4] is 1.3 times.
`CC(=O)O[C@H]1C(=O)[C@]2(C)[C@@H](OC(=O)COC3O[C@H](CO)[C@@H](O)[C@H](O)[C@H]3O)C[C@H]3OC[C@@]3(OC(C)=O)[C@H]2[C@H](OC(=O)c2ccccc2)[C@]2(O)C[C@H](OC(=O)[C@H](OC(=O)COC3O[C@H](CO)[C@@H](O)[C@H](O)[C@H]3O)[C@@H](NC(=O)c3ccccc3)c3ccccc3)C(C)=C1C2(C)C` (some centres unmarked) [2',7-S-paclitaxel, Diglucosyloxyacetyl-2',7-paclitaxe]: the “solubility in water relative to paclitaxel” value in data set [1] was found to be 121 times. In data set [1] (setting [5]), the Solubility was 48.4 µg/mL (≈ 37.4 µM). In data set [2], the “stability in aqueous solutions” value is “unstable in aqueous solutions”. In data set [3], the Depolymerization-inhibiting activity was 77.7 and the Polymerization-promoting activity stood at 40.5.
